Measured values: paper PMC2735267 (Neuropharmacology, 2009)
Like-named read-outs stand apart in the source and are kept apart here. Marks after values point to notes of the source that are not given here.

Experiments:
[1] = tested on: cytisine-sensitive [125I]epibatidine binding sites; type: in vivo, DBA/2J mice; details: for Cytisine-sensitive [125I]epibatidine binding % change: 3-IC 0.2 mg/kg/h iv 7 days vs saline; for Cytisine-sensitive [125I]epibatidine binding: 3-IC 0.2 mg/kg/h iv 7 days
α7* nAChR binding sites = type: in vivo, DBA/2J mice; details: for [125I]α-bungarotoxin binding: 3-IC 0.2 mg/kg/h iv 7 days; for [125I]α-bungarotoxin binding % change: 3-IC 0.2 mg/kg/h iv 7 days vs saline
[2] = tested on: cytisine-resistant [125I]epibatidine binding sites (mixed population of nAChR); details: membranes, any brain region analyzed; 0.2 mg/kg/h iv 7 days
α7* receptors = details: read-out: Ki α7* receptors in rat brain; ref Abin-Carriquiry et al., 2006; cited from earlier work
α4β2* receptors = details: read-out: Ki α4β2* receptors in rat brain; ref Abin-Carriquiry et al., 2006; cited from earlier work
human α7 = details: read-out: Ki human α7; expressed in Xenopus oocytes; ref Slater et al., 2003; cited from earlier work
human α4β2 = details: read-out: Ki human α4β2; expressed in Xenopus oocytes; ref Slater et al., 2003; cited from earlier work
[3] = tested on: [3H]noradrenaline release; details: read-out: EC50 [3H]noradrenaline release; rat hippocampal slices; ref Abin-Carriquiry et al., 2006; cited from earlier work
[4] = superior colliculus (sup. gray)
[5] = ventral tegmental area, listed as 3-iodocytisine
[6] = inferior colliculus (externall)
[7] = superior colliculus (optic nerve)
[8] = supramammillary hypothalamic nucleus
[9] = ventrolateral geniculate nucleus

In the case of `O=c1c(I)ccc2n1C[C@@H]1CNC[C@H]2C1` [3-IC, 3-iodocytisine], the “Cytisine-sensitive [125I]epibatidine binding % change” value [1, 4] is reported as 50.2 ** %, the “Cytisine-sensitive [125I]epibatidine binding” value ([1]; ventral tegmental area) is reported as 25.1 ± 1.5 fmol/mg and the “Cytisine-sensitive [125I]epibatidine binding % change” value ([1]; ventral tegmental area) is reported as 45.2%. The “Cytisine-sensitive [125I]epibatidine binding % change” value [1, 5] was 45.2 * %, the “Cytisine-sensitive [125I]epibatidine binding” value ([1]; ventromedial thalamic nucleus) was 50.7 ± 1.5 fmol/mg and the “Cytisine-sensitive [125I]epibatidine binding % change” value ([1]; ventromedial thalamic nucleus) was -0.8%. For the same compound, the “Cytisine-sensitive [125I]epibatidine binding” value ([1]; zona incerta) was 13.7 ± 1.2 fmol/mg, the “Cytisine-sensitive [125I]epibatidine binding % change” value ([1]; zona incerta) was 55.3 * % and the “[125I]α-bungarotoxin binding” value (α7* nAChR binding sites; caudate putamen) was 19.6 ± 2.3 fmol/mg. The “[125I]α-bungarotoxin binding % change” value (α7* nAChR binding sites; caudate putamen) was 65.8%, the “[125I]α-bungarotoxin binding % change” value (α7* nAChR binding sites; caudate putamen, listed as 3-iodocytisine) was 65.8 * % and the “[125I]α-bungarotoxin binding” value (α7* nAChR binding sites; cingulate cortex) was 6.3 ± 1.4 fmol/mg. For the same compound, the “[125I]α-bungarotoxin binding % change” value (α7* nAChR binding sites; cingulate cortex) was 11.7%, the “[125I]α-bungarotoxin binding” value (α7* nAChR binding sites; dentate gyrus (granular layer)) was 11.7 ± 1.2 fmol/mg and the “[125I]α-bungarotoxin binding % change” value (α7* nAChR binding sites; dentate gyrus (granular layer)) was 63.5%. The “[125I]α-bungarotoxin binding” value (α7* nAChR binding sites; hippocampus (CA1-3)) was 10.2 ± 0.8 fmol/mg, the “[125I]α-bungarotoxin binding % change” value (α7* nAChR binding sites; hippocampus (CA1-3)) was 77.5% and the “[125I]α-bungarotoxin binding % change” value (α7* nAChR binding sites; hippocampus (CA1-3), listed as 3-iodocytisine) was 77.5 ** %. The “[125I]α-bungarotoxin binding” value (α7* nAChR binding sites; inferior colliculus (central)) was 37.6 ± 4.2 fmol/mg, the “[125I]α-bungarotoxin binding % change” value (α7* nAChR binding sites; inferior colliculus (central)) was 21.7% and the “[125I]α-bungarotoxin binding” value (α7* nAChR binding sites; inferior colliculus (dorsal)) was 21.7 ± 3.7 fmol/mg. The “[125I]α-bungarotoxin binding % change” value (α7* nAChR binding sites; inferior colliculus (dorsal)) was 14.4%, the “[125I]α-bungarotoxin binding” value (α7* nAChR binding sites; [6]) was 23.5 ± 4.1 fmol/mg and the “[125I]α-bungarotoxin binding % change” value (α7* nAChR binding sites; [6]) was 33.1%. For the same compound, the “[125I]α-bungarotoxin binding” value (α7* nAChR binding sites; interpeduncular nucleus) was 23.5 ± 1.4 fmol/mg, the “[125I]α-bungarotoxin binding % change” value (α7* nAChR binding sites; interpeduncular nucleus) was 26.2 * % and the “[125I]α-bungarotoxin binding” value (α7* nAChR binding sites; medial habenula) was 11.6 ± 1.0 fmol/mg. The “[125I]α-bungarotoxin binding % change” value (α7* nAChR binding sites; medial habenula) was 26.4%, the “[125I]α-bungarotoxin binding” value (α7* nAChR binding sites; nucleus accumbens) was 6.8 ± 0.7 fmol/mg and the “[125I]α-bungarotoxin binding % change” value (α7* nAChR binding sites; nucleus accumbens) was 81.2%. The “[125I]α-bungarotoxin binding % change” value (α7* nAChR binding sites; nucleus accumbens, listed as 3-iodocytisine) was 81.2 ** %, the “[125I]α-bungarotoxin binding” value (α7* nAChR binding sites; parietal cortex (layers 1-3)) was 5.9 ± 0.3 fmol/mg and the “[125I]α-bungarotoxin binding % change” value (α7* nAChR binding sites; parietal cortex (layers 1-3)) was 79.3 ** %. The “[125I]α-bungarotoxin binding” value (α7* nAChR binding sites; parietal cortex (layers 4-6)) was 7.8 ± 0.4 fmol/mg, the “[125I]α-bungarotoxin binding % change” value (α7* nAChR binding sites; parietal cortex (layers 4-6)) was 74.4 ** % and the “[125I]α-bungarotoxin binding” value (α7* nAChR binding sites; retrosplenial Cortex) was 4.8 ± 0.4 fmol/mg. The “[125I]α-bungarotoxin binding % change” value (α7* nAChR binding sites; retrosplenial Cortex) was 21.2%, the “[125I]α-bungarotoxin binding” value (α7* nAChR binding sites; subiculum) was 7.1 ± 0.7 fmol/mg and the “[125I]α-bungarotoxin binding % change” value (α7* nAChR binding sites; subiculum) was 22.0%. The “[125I]α-bungarotoxin binding” value (α7* nAChR binding sites; substantia nigra) was 7.9 ± 0.9 fmol/mg, the “[125I]α-bungarotoxin binding % change” value (α7* nAChR binding sites; substantia nigra) was 29.5% and the “[125I]α-bungarotoxin binding” value (α7* nAChR binding sites; [7]) was 11.5 ± 0.5 fmol/mg. For the same compound, the “[125I]α-bungarotoxin binding % change” value (α7* nAChR binding sites; [7]) was 44.2 ** %, the “[125I]α-bungarotoxin binding” value (α7* nAChR binding sites; [4]) was 23.1 ± 0.8 fmol/mg and the “[125I]α-bungarotoxin binding % change” value (α7* nAChR binding sites; [4]) was 34.7 ** %. The “[125I]α-bungarotoxin binding” value (α7* nAChR binding sites; [8]) was 12.1 ± 1.2 fmol/mg, the “[125I]α-bungarotoxin binding % change” value (α7* nAChR binding sites; [8]) was 24.4% and the “[125I]α-bungarotoxin binding” value (α7* nAChR binding sites; ventral tegmental area) was 5.2 ± 0.4 fmol/mg. For the same compound, the “[125I]α-bungarotoxin binding % change” value (α7* nAChR binding sites; ventral tegmental area) was 40.5%, the “[125I]α-bungarotoxin binding % change” value (α7* nAChR binding sites; [5]) was 40.5 * % and the “[125I]α-bungarotoxin binding” value (α7* nAChR binding sites; [9]) was 18.1 ± 1.2 fmol/mg. For the same compound, the “[125I]α-bungarotoxin binding % change” value (α7* nAChR binding sites; [9]) was 30.2 * %, the “[125I]α-bungarotoxin binding” value (α7* nAChR binding sites; zona incerta) was 11.1 ± 1.0 fmol/mg and the “[125I]α-bungarotoxin binding % change” value (α7* nAChR binding sites; zona incerta) was 52.1%. The “[125I]α-bungarotoxin binding % change” value (α7* nAChR binding sites; zona incerta, listed as 3-iodocytisine) was 52.1 * %, the “density of cytisine-resistant [125I]epibatidine binding sites vs saline” value [2] was “No significant differences” and the Ki (α7* receptors) was 115 nM. The Ki (α4β2* receptors) was 0.17 nM, the Ki (human α7) was 7 nM and the Ki (human α4β2) was 0.7 nM. The EC50 [3] was 220 nM.
